From patent publication US10905123B2, “Herbicidal compounds” (Syngenta Participations AG, priority 2015, dated 2021)

Assays:
Assay type in all cases: in vivo
Conditions in all cases: evaluated after 13 days
[1] = system: Echinochloa crus-galli (ECHCG); assay: B2 post-emergence herbicidal activity
Protocol: (§1) Seeds of a variety of test species were sown in standard soil in pots: Triticum aestivium (TRZAW), Oryza sativa (ORYSA), Avena fatua (AVEFA), Alopecurus myosuroides (ALOMY), Echinochloa crus-galli (ECHCG), Lolium perenne (LOLPE). After 8 days cultivation (post-emergence) under controlled conditions in a glasshouse (at 24/16° C., day/night; 14 hours light; 65% humidity), the plants were sprayed with an aqueous spray solution derived from the formulation of the technical active ingredient in acetone/water (50:50) solution containing 0.5% Tween 20 (polyoxyethelyene sorbitan monolaurate, CAS RN 9005-64-5). The test plants were then grown in a glasshouse under controlled conditions (at 24/16° C., day/night; 14 hours light; 65% humidity) and watered twice daily. After 13 days, the test was evaluated (5=total damage to plant; 0=no damage to plant).

[2] = system: Triticum aestivium (TRZAW); assay: B2 post-emergence herbicidal activity
Protocol: as §1

[3] = system: Lolium perenne (LOLPE); assay: B2 post-emergence herbicidal activity
Protocol: as §1

[4] = system: Oryza sativa (ORYSA); assay: B2 post-emergence herbicidal activity
Protocol: as §1

[5] = system: Avena fatua (AVEFA); assay: B2 post-emergence herbicidal activity
Protocol: as §1

[6] = system: Alopecurus myosuroides (ALOMY); assay: B2 post-emergence herbicidal activity
Protocol: as §1

[7] = system: Echinochloa crus-galli (ECHCG); assay: B1 pre-emergence herbicidal activity
Protocol: as §1, with “After” for “After 8 days”, “for one day (pre-emergence)” for “(post-emergence)”

[8] = system: Triticum aestivium (TRZAW); assay: B1 pre-emergence herbicidal activity
Protocol: as §1, with “After” for “After 8 days”, “for one day (pre-emergence)” for “(post-emergence)”

[9] = system: Lolium perenne (LOLPE); assay: B1 pre-emergence herbicidal activity
Protocol: as §1, with “After” for “After 8 days”, “for one day (pre-emergence)” for “(post-emergence)”

[10] = system: Oryza sativa (ORYSA); assay: B1 pre-emergence herbicidal activity
Protocol: as §1, with “After” for “After 8 days”, “for one day (pre-emergence)” for “(post-emergence)”

[11] = system: Avena fatua (AVEFA); assay: B1 pre-emergence herbicidal activity
Protocol: as §1, with “After” for “After 8 days”, “for one day (pre-emergence)” for “(post-emergence)”

[12] = system: Alopecurus myosuroides (ALOMY); assay: B1 pre-emergence herbicidal activity
Protocol: as §1, with “After” for “After 8 days”, “for one day (pre-emergence)” for “(post-emergence)”

Row | SMILES | Control of ECHCG after post-emergence application (damage score 0-5) ([1]; Rate 1000 g/ha) | Control of TRZAW after post-emergence application (damage score 0-5) ([2]; Rate 1000 g/ha) | Control of LOLPE after post-emergence application (damage score 0-5) ([3]; Rate 1000 g/ha) | Control of ORYSA after post-emergence application (damage score 0-5) ([4]; Rate 1000 g/ha) | Control of AVEFA after post-emergence application (damage score 0-5) ([5]; Rate 1000 g/ha) | Control of ALOMY after post-emergence application (damage score 0-5) ([6]; Rate 1000 g/ha) | Control of ECHCG after pre-emergence application (damage score 0-5) ([7]; Rate 1000 g/ha) | Control of TRZAW after pre-emergence application (damage score 0-5) ([8]; Rate 1000 g/ha) | Control of LOLPE after pre-emergence application (damage score 0-5) ([9]; Rate 1000 g/ha) | Control of ORYSA after pre-emergence application (damage score 0-5) ([10]; Rate 1000 g/ha) | Control of AVEFA after pre-emergence application (damage score 0-5) ([11]; Rate 1000 g/ha) | Control of ALOMY after pre-emergence application (damage score 0-5) ([12]; Rate 1000 g/ha) | other results
1 | CN(C(=O)OC(C)(C)C)c1cn(-c2cncnc2)nc1C(F)(F)F [Compound A6] | 5 | 1 | 1 | 5 | 1 | 3 | 5 | 0 | 1 | 2 | 3 | 0 | 
2 | CC(C)(C)OC(=O)Nc1cn(-c2cccnc2)nc1C(F)(F)F [Compound A7] |  |  |  |  |  |  |  |  |  |  |  |  | Control of ECHCG after post-emergence application (damage score 0-5) ([1]; Rate 500 g/ha): 4; Control of TRZAW after post-emergence application (damage score 0-5) ([2]; Rate 500 g/ha): 0; Control of LOLPE after post-emergence application (damage score 0-5) ([3]; Rate 500 g/ha): 1; Control of ORYSA after post-emergence application (damage score 0-5) ([4]; Rate 500 g/ha): 1; Control of AVEFA after post-emergence application (damage score 0-5) ([5]; Rate 500 g/ha): 2; Control of ALOMY after post-emergence application (damage score 0-5) ([6]; Rate 500 g/ha): 2; Control of ECHCG after pre-emergence application (damage score 0-5) ([7]; Rate 500 g/ha): 2; Control of TRZAW after pre-emergence application (damage score 0-5) ([8]; Rate 500 g/ha): 0; Control of LOLPE after pre-emergence application (damage score 0-5) ([9]; Rate 500 g/ha): 0; Control of ORYSA after pre-emergence application (damage score 0-5) ([10]; Rate 500 g/ha): 1; Control of AVEFA after pre-emergence application (damage score 0-5) ([11]; Rate 500 g/ha): 0; Control of ALOMY after pre-emergence application (damage score 0-5) ([12]; Rate 500 g/ha): 0
3 | Cc1nn(-c2cncc(F)c2)cc1N(C)C(=O)OC(C)(C)C [Compound A10] | 4 | 0 | 1 | 1 | 3 | 1 | 4 | 0 | 1 | 1 | 2 | 0 | 
4 | CN(C(=O)OC(C)(C)C)c1cc(-c2cncnc2)nn1C [Compound A14] | 4 | 1 | 3 | 0 | 4 | 1 | 3 | 1 | 0 | 0 | 3 | 1 | 
5 | Cc1nn(-c2cncnc2)cc1N(C)C(=O)NC(C)(C)C [Compound A16] | 4 | 1 | 2 | 0 | 3 | 1 | 2 | 1 | 1 | 1 | 1 | 1 | 
6 | CN(C(=O)NC(C)(C)C)c1cn(-c2cncc(F)c2)nc1C(F)(F)F [Compound A19] | 4 | 0 | 1 | 0 | 1 | 1 | 2 | 0 | 1 | 0 | 0 | 0 | 
7 | COC(=O)N(C)c1cn(-c2cncc(F)c2)nc1C(F)(F)F [Compound A27] | 4 | 1 | 2 | 1 | 3 | 0 | 2 | 0 | 0 | 0 | 0 | 0 | 
8 | CN(C(=O)OC(C)(C)C)c1c(Cl)c(-c2cccnc2)nn1C [Compound A39] | 4 | 0 | 3 | 1 | 1 | 2 | 3 | 0 | 0 | 1 | 4 | 0 | 
9 | Cc1nn(-c2cncnc2)cc1N(C)C(=O)NC1CCCCC1 [Compound A44] | 1 | 0 | 2 | 0 | 3 | 1 | 1 | 1 | 1 | 1 | 1 | 0 | 
